In patent publication US20240352409A1, “CELL SEEDING AGENT AND SUBSTRATE FOR CELL TRANSPLANTATION USE” (CELLUSION INC., priority 2021, published 2024):
Entries after “also recorded” stand apart in the source; their conditions may differ.

Columns and labels:
[1] = tested on: iPS cell-derived corneal endothelial substitute cells; assay: Influence of ROCK inhibitor on tight junction formation (ZO-1 expression) during passage operation in differentiation induction; format: cell-based; details: 10 μM Y-27632 during passage operation; FIG. 1
Procedure: An influence of a ROCK inhibitor during the passage operation in the differentiation induction step of iPS cell-derived corneal endothelial substitute cells was investigated. According to Example 1 and Experimental Example 2 of Patent Literature 3 (10 μM Y-27632 was used as ROCK inhibitor instead of fasudil), the expression of ZO-1 was investigated.

[2] = tested on: iPS cells (FF-101s04 strain); assay: Engraftment of iPS cells seeded in phenolphthalein derivative-added cell seeding agents (differentiation induction, fixed or changed seeding density); format: cell-based; details: derivative 0.22 mM, day 7; for cell engraftment at specified seeding density: seeded at 1.04×10^4 cells/cm^2; for cell engraftment at seeding number lower than specified density: seeding density lower than 1.04×10^4 cells/cm^2
Procedure: T12.5 flask (Corning Incorporated/353107) was coated with iMatrix511 (MATRIXOME, Inc./892005) at a concentration of 6 μg/mL. iPS cells (FF-101s04 strain) were suspended in AK03N+Y medium at a density of 8.0×10^3 cells/cm^2, and were seeded into the T12.5 flask. Culture was started in a CO2 incubator at 37° C., and the medium was replaced the next day with AK03N medium not containing Y-27632. After a gap of 2 days, medium exchange was performed for 2 consecutive days, and passage was performed on the 6th day of culture.
A T25 flask (Sumitomo Bakelite Co., Ltd./MS-23050) was coated with iMatrix511 (MATRIXOME, Inc./892005) at a concentration of 6 μg/mL. iPS cells were suspended in AK03N+Y medium at a density of 2.2×10^3 cells/cm^2, and were seeded into the T25 flask. Culture was started in a CO2 incubator at 37° C., and the medium was replaced the next day with AK03N medium not containing Y-27632. After a gap of 2 days, medium exchange was performed for 2 consecutive days, and passage was performed on the 6th day of culture.
DMEM/F12 non phenol red (Thermo Fisher Scientific, Inc./11039-021) was used as the basal medium, and a phenol red-free corneal endothelial substitute cell induction medium was prepared (hereinafter also to be referred to as phenol red-free medium in this Example). To the basal medium (500 mL) were added, as additives, ITS-Supplement (Ventria/777ITS091), IGF1 (OrphanPacific, Inc.; Somazone for injection/858100075, 1 mg/mL), LIF (FUJIFILM Wako Pure Chemical Corporation/125-06661), IL-6 (Miltenyi Biotec/170-076-161), IL-11 (Pepro tech/AF-200-11), TNFα (Miltenyi Biotec/170-076-178), and water-soluble HYDROCORTONE Injection (Nichi-Iko Pharmaceutical Co., Ltd./27126333) described in the following Table 1.
The phenolphthalein derivatives shown in the following Table 2, B to D, were dissolved in advance in ethanol to a concentration of 6.6×10^−6 mol/mL. 30 mL each of the phenol red-free corneal endothelial substitute cell induction medium prepared in the above-mentioned 2. was dispensed into four 50 mL tubes, and 40.5 μL of A phenolsulfonphthalein injection 0.6% (AFP) was added to one of the four tubes. Furthermore, 100 μL of B cresol red solution with adjusted concentration was added to one of the remaining three tubes. Similarly, C thymol blue solution and D bromocresol purple solution were respectively added to the remaining two tubes. A total of four different phenolphthalein derivative-containing media were prepared and used as phenolphthalein derivative-added cell seeding agents. Each seeding agent was adjusted to have a phenolphthalein derivative concentration of 0.22 mM. […]

[3] = tested on: iPS cell-derived corneal endothelial substitute cells; assay: Influence of phenol red in cell seeding agent on engraftment, recovered cell number and survival rate in differentiation induction step; format: cell-based; details: with vs without phenol red
Procedure: When induction into corneal endothelial substitute cell was started, iPS cells recovered using TrypLE-Select (Thermo Fisher Scientific) were suspended in a phenol red-added cell seeding agent or phenol red no-addition cell seeding agent. A 100 mm culture dish (Sumitomo Bakelite Co., Ltd.) was coated with iMatrix 511 at a concentration of 3 μg/ml, and iPS cells suspended in each cell seeding agent were seeded at a density of 1.0×10^4 cells/cm^2. Culture was started in a CO2 incubator at 37° C., and thereafter, the medium was replaced with phenol red-added corneal endothelial substitute cell induction medium or phenol red no-addition corneal endothelial substitute cell induction medium at a frequency of once every 2 to 3 days thereafter. Culture was performed for 14 days under the above-mentioned conditions in each medium for inducing corneal endothelial substitute cells. After 3, 5, and 7 days of culture, the state of the cells was confirmed under a microscope (FIG. 2A). After culturing for 14 days, for the groups in which cell engraftment was observed under a microscope, the cells were collected and the number of cells was counted. The cells were collected after removing the culture supernatant, washed twice using DPBS (−) (Thermo Fisher Scientific), detached using Accutase (Innovative Cell Technologies), and collected into a centrifuge tube. The cells collected into the centrifuge tube were separated by centrifugation, and after adjusting the cell concentration using a medium and the like, the cell concentration and survival rate were measured using an automatic cell counter (ChemoMetec) (FIG. 2B).

[4] = tested on: Macaca fascicularis bullous keratopathy model; assay: Transplantation of corneal endothelial substitute cell suspension into anterior chamber of bullous keratopathy model; format: in vivo
Procedure: A cell suspension of iPS cell-derived corneal endothelial substitute cells (8×10^5 cells/160 μl) obtained in Example 1 was transplanted to the anterior chamber of a Macaca fascicularis bullous keratopathy model (conducted by SHIN NIPPON BIOMEDICAL LABORATORIES, LTD.). Two types of substrates for transplantation (containing insulin, insulin-like growth factor, and the like) were prepared: one with and one without the addition of phenol red. The corneal endothelial substitute cell suspension was transplanted into the anterior chamber of the eye by the following procedure. • (1) Corneal endothelial substitute cells suspended in two types of substrates for transplantation, with and without phenol red added, were injected into the anterior chamber using a 27-gauge syringe. • (2) Macaca fascicularis was placed face down for 3 hr. • (3) After 28 days of observation, the eyeballs were collected and observed macroscopically and microscopically. Formation of a corneal endothelial substitute cell layer and corneal thickness were measured for the transplanted eye. Corneal thickness was measured using a corneal thickness measuring device (Tomey Corporation; SP-100).

C[C@@H](N)[C@H]1CC[C@H](C(=O)Nc2ccncc2)CC1 [Y-27632]
cell transformation (epithelial-to-mesenchymal transition) [1]: causes transformation that appears to be epithelial-to-mesenchymal transition | formation of tight junction (expression of ZO-1) [1]: formation of tight junction was inhibited; also recorded: inhibits the formation of tight junction

Cc1cc(C2(c3cc(C)c(O)c(Br)c3)OS(=O)(=O)c3ccccc32)cc(Br)c1O [bromocresol purple]
cell engraftment at specified seeding density [2]: Engraftment was also confirmed

Cc1cc(C2(c3ccc(O)c(C)c3)OS(=O)(=O)c3ccccc32)ccc1O [cresol red]
cell engraftment at seeding number lower than specified density [2]: cell engraftment was confirmed

O=S1(=O)OC(c2ccc(O)cc2)(c2ccc(O)cc2)c2ccccc21 [phenol red, phenolsulfonphthalein]
engraftment of cells after seeding (microscope) ([3]; 3rd, 5th, 7th day of culture, seeded at 1.0×10^4 cells/cm^2, FIG. 2A): Engraftment was clearly better | number of recovered viable cells ([3]; day 14 of culture, FIG. 2B): clearly superior | survival rate ([3]; day 14 of culture, FIG. 2B): clearly superior | engraftment and distribution of transplanted cells on posterior cornea ([4]; 8×10^5 cells/160 μl into anterior chamber, substrate with phenol red, 28 days observation, FIG. 4): engrafted on the posterior cornea and spread uniformly | corneal thickness ([4]; substrate for transplantation with phenol red, FIG. 3): a decrease in corneal thickness was observed; also recorded: corneal thickness decreased | corneal edema ([4]; substrate for transplantation with phenol red, judged from corneal thickness, FIG. 3): corneal edema was improved; also recorded: corneal edema-improving effect was observed | cell engraftment at seeding number lower than specified density [2]: cell engraftment was confirmed

Cc1cc(O)c(C(C)C)cc1C1(c2cc(C(C)C)c(O)cc2C)OS(=O)(=O)c2ccccc21 [thymol blue]
cell engraftment at specified seeding density [2]: Engraftment was also confirmed
